ChEMBL document CHEMBL3352440, “Design, synthesis and SAR exploration of tri-substituted 1,2,4-triazoles as inhibitors of the annexin A2-S100A10 protein interaction” (Bioorg Med Chem, 2014)
The source made the active and inactive calls. The rule behind the calls is not given here.

Target: Annexin A2/S100-A10 (Homo sapiens) (UniProt P07355+P60903)
Assay: Inhibition of Annexin A2/Protein S100-A10 protein interaction in human MDA-MB-231 cells by Western blotting based immunoprecipitation assay
Format: cell-based

Sequence of Annexin A2/S100-A10 (Homo sapiens) (P07355 2-339 limits assumed): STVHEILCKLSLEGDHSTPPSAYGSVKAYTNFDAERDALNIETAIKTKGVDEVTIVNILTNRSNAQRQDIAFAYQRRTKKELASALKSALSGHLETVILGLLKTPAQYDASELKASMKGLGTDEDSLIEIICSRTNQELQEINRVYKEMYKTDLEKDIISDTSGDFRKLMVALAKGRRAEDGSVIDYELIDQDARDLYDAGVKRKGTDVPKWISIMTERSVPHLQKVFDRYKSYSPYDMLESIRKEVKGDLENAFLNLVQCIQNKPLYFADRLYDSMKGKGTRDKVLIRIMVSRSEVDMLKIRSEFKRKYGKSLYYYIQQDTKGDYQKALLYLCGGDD
Sequence of Annexin A2/S100-A10 (Homo sapiens) (P60903 whole entry partner): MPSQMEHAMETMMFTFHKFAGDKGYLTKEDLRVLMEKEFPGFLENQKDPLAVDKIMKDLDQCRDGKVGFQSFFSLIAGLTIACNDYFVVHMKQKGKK

| Compound | inhibition |
| --- | --- |
| Ac-MSTVHEILCKLSLE-OH | Active |
| Cc1cc(C)nc(SCc2nnc(SCC(=O)Nc3ccc(C(C)C)cc3)n2Cc2ccco2)n1 | Active |
